We go through four compounds from US10570436B2, “Method of analysing a sample including a microorganism of interest” (Spectromics Limited, priority 2014, dated 2020).

≈ marks a conversion by molar mass, not a printed value.

In one experiment the test system is E. coli K12. Kind of experiment: Minimum inhibitory concentration (MIC), bioscreen spectrophotometer. The format is cell-based. The conditions noted are these: Escherichia coli, 24 h incubation at 37° C., bioscreen spectrophotometer at 600 nm. The text has this:
A range of different concentrations of antibiotic were used to establish the MIC employing a standardised method^17.

A further experiment has as its system P. aeruginosa. Kind of experiment: UV-Vis spectroscopy with PC-DFA cluster plot, phenotypic shift after antibiotic exposure vs unexposed control. The conditions noted are these: after both 10 minutes and 30 minutes. The format is cell-based, Pseudomonas aeruginosa. The text has this:
(§1) A first stage of data analysis involved the use of principal component analysis (PCA). […] Its aim is to simplify spectral data from a high number of variables into a smaller number of indices (each called a “principal component” or “PC”), simultaneously retaining the original data variance by identifying data patterns. This is achieved as each PC becomes a representation of a group of data with a linear relationship, at the same time being completely uncorrelated to the subsequent PC which corresponds to a different data dimension. PCs are arranged in a descending order in terms of the degree of original data variance they represent with the first PC representing the greatest amount of original data variance. Addition of all the PCs thus yields the entire original data variance, with the first 5 PCs nearly always corresponding to almost 95% of that variance^11,20-22.
(§2) In a second stage, discriminant function analysis (DFA), a supervised technique, was used. This chemometrics technique forms a model by taking into account the structure of data collected from the experiment, thus having a priori experimental knowledge. […]
(§3) The plates were transferred to one of two BioTek Synergy HT microplate readers programmed for 30 min shaking with medium speed at 37° C. followed by a full scan (200-999 nm range) of all the samples with 2 nm resolution. […]

The test system of another experiment is S. epidermidis. The experiment is described as above. The format is cell-based, Staphylococcus epidermidis. The conditions noted are these: after both 10 minutes and 30 minutes.
From the text: as §1, §2, §3

The test system of experiment [1] is Staphylococcus aureus (Gram-positive). Kind of experiment: Susceptibility/resistance of the selected strain (Table 10). The conditions noted are these: Experimental Work 4. The format is cell-based.
Experiment [2] deals with Psuedomonas aeruginosa (Gram-negative). The description is as above. The format is cell-based, Pseudomonas aeruginosa. Particulars: Experimental Work 4.
Another experiment relates to S. aureus. Kind of experiment: UV-Vis spectroscopy with PC-DFA cluster plot, phenotypic shift after antibiotic exposure vs unexposed control. The format is cell-based, Staphylococcus aureus.
From the text: as §1
In a second stage, discriminant function analysis (DFA), a supervised technique, was used. This chemometrics technique forms a model by taking into account the structure of data collected from the experiment, thus having a priori experimental knowledge. Using this knowledge it then discriminates data into groups (bacterial classes of treatment) based on the PCs obtained from the PCA in an attempt to reduce intra-group variance and widen inter-group variance^23.
For each strain, 3 mL of nutrient broth was inoculated with the overnight grown cells to a final OD600nm=0.1, followed by dispensing the samples as 200 μL aliquots in a sterile Corning 96 well plate (5 biological replicates per strain for each condition). All plates were sealed using sterile Breath-Easy sealing membranes to reduce sample evaporation. The plates were incubated at 37° C. with 200 rpm shaking for 150 min.
The plates were transferred to one of two BioTek Synergy HT microplate readers programmed for 30 min shaking with medium speed at 37° C. followed by a full scan (200-999 nm range) of all the samples with 2 nm resolution.
In general, unless otherwise stated, the material and methods for Experimental Work 4 were the same as for Experimental Work 3, except that a single Thermo Biomate 5 UV-Vis spectrometer across spectral range of 300-800 nm was used for data collection in Experimental Work 4.

In experiment [3] the test system is Staphylococcus epidermidis (Gram-positive). Briefly: Susceptibility/resistance of the selected strain (Table 10). The conditions noted are these: Experimental Work 4. The format is cell-based.

As for `NCC[C@H](O)C(=O)N[C@@H]1C[C@H](N)[C@@H](O[C@H]2O[C@H](CN)[C@@H](O)[C@H](O)[C@H]2O)[C@H](O)[C@H]1O[C@H]1O[C@H](CO)[C@@H](O)[C@H](N)[C@H]1O` [Amikacin], in the experiment with E. coli K12, inhibition of growth (MIC) required 10 µg/mL (≈ 17.1 µM).

With `CC1(C)S[C@@H]2[C@H](NC(=O)[C@H](N)c3ccccc3)C(=O)N2[C@H]1C(=O)O` [Ampicillin], the “shift in the cluster plot (PC-DFA)” value is “minimal” in the experiment with P. aeruginosa, “minimal” with S. epidermidis, roughly 1.5 units with S. aureus (after 30 minutes exposure) and “minimal” with S. aureus (at 10 minutes exposure). Also, the results for the “Sensitive / Resistant to antibiotic” value in experiment [1], in experiment [2] and in experiment [3] were “Sensitive”, “Resistant” and “Resistant”, respectively. The MIC – broadly, the lowest concentration found to suppress growth – with E. coli K12 is 10 µg/mL (≈ 28.6 µM).

With `O=C(O)c1cn(C2CC2)c2cc(N3CCNCC3)c(F)cc2c1=O` [Ciprofloxacin], the “Sensitive / Resistant to antibiotic” value in experiment [1], in experiment [2] and in experiment [3] was “Sensitive” in each case.

With `COc1cc(Cc2cnc(N)nc2N)cc(OC)c1OC` [Trimethoprim], the “shift in the cluster plot (PC-DFA)” value with P. aeruginosa was roughly 3 units; with S. epidermidis it was roughly 3 units; with S. aureus (after 30 minutes exposure), roughly 4 units; in the experiment with S. aureus (at 10 minutes exposure), “minimal”. The “Sensitive / Resistant to antibiotic” value in experiment [1], in experiment [2] and in experiment [3] was “Resistant” throughout. Moreover, in the experiment on E. coli K12, the MIC worked out at 300 µg/mL (≈ 1030 µM).
